Experimental data as given in patent US20250000843A1, “LIGNAN-INSPIRED COMPOUNDS, METHODS OF MAKING, AND USING THEREOF” (IOWAIBO, INC., priority 2023, published 2025).

Target: telomerase (Homo sapiens, UniProt O14746)
Assay: Q-TRAP telomerase activity in PC3 prostate cancer cells
Format: cell-based
Parameters: allow the enzymatic addition of telomeric DNA repeats by endogenous telomerase; endogenous in cells; host or cells: PC3 prostate cancer cells (protein extract of lysed cell pellets); key to Significance of RTA difference vs. control: No: non-significant; Yes (*): p < 0.05; Yes (**): p < 0.01; Yes (***): p < 0.001; Yes (****): p < 0.0001
Settings: for telomerase inhibition effect: PC3 prostate cancer cell line
Procedure: The general mechanism of the Q-TRAP technique involves cellular pellets being lysed for protein extraction which is then subsequently quantified and stored under specific conditions to avoid protein degradation. Protein obtained in the process was used within 72 hours and samples were stored at 4° C. Telomerase protein extracts are then incubated with a specific oligonucleotide substrate to allow the enzymatic addition of telomeric DNA repeats by endogenous telomerase. Following the enzymatic reaction, telomerase extension products are then amplified and quantified by real-time qPCR. In real time PCR, a positive reaction is detected by accumulation of a fluorescent signal. The Ct (cycle threshold) is defined as the number of cycles required for fluorescence to cross the threshold (i.e.: exceeds background levels). […] Data are reported as relative telomerase activity (RTA). […] Telomeric repeat amplification protocol (TRAP) was modified for quantitative real-time PCR (Q-TRAP) and was used to determine the effect of dibenzyl butyl lactone derivative on telomerase activity in prostate cancer cell. The same methods as used in Example 3 were employed. The same abbreviation scheme as presented in Table 7 is used throughout this example as well.

telomerase, sequence (O14746 whole entry): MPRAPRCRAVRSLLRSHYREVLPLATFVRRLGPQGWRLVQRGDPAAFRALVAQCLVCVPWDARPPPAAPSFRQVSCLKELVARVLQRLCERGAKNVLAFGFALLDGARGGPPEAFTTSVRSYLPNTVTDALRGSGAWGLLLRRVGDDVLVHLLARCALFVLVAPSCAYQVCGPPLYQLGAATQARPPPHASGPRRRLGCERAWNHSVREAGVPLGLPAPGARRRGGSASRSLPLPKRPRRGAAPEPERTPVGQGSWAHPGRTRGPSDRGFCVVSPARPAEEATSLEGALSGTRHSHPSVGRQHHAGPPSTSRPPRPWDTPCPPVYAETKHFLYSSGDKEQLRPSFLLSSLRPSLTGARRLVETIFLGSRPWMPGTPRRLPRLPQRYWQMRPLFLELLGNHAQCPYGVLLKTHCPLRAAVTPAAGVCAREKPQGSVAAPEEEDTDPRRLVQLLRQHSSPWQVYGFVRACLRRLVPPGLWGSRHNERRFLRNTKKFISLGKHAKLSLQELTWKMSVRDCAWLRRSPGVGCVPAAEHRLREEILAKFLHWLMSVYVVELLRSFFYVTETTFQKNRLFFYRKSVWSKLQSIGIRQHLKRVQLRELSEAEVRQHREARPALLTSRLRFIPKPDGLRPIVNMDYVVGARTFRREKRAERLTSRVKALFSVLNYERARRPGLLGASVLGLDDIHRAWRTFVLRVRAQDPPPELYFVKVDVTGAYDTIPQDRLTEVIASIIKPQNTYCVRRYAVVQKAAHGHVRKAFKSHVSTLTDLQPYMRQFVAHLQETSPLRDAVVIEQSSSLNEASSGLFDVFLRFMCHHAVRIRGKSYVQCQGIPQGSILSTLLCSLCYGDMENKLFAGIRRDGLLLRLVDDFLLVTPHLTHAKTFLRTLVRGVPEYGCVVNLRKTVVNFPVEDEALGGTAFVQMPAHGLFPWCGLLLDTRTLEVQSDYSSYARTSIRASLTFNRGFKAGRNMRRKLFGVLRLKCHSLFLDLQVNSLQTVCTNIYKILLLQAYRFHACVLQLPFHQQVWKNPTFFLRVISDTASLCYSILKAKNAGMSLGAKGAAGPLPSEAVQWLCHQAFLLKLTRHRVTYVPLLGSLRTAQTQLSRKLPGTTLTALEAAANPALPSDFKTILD
telomerase, sequence (O60832 whole entry partner): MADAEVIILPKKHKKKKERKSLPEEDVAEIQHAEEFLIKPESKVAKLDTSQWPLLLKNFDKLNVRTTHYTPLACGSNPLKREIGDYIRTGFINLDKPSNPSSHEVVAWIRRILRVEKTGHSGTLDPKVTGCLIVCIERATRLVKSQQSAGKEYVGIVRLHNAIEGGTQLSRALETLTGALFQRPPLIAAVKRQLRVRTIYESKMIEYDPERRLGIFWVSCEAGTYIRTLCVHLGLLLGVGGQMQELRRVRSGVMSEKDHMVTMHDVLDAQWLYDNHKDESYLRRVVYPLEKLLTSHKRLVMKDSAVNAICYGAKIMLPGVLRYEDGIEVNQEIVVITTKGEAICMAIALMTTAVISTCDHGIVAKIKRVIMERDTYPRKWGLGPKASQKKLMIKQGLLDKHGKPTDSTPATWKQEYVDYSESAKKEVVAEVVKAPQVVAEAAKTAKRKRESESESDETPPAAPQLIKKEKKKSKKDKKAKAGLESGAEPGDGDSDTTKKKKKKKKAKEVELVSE
telomerase, sequence (Q9NPE3 whole entry partner): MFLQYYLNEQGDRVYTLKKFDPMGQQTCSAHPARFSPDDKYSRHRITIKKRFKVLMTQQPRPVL
telomerase, sequence (Q9NX24 whole entry partner): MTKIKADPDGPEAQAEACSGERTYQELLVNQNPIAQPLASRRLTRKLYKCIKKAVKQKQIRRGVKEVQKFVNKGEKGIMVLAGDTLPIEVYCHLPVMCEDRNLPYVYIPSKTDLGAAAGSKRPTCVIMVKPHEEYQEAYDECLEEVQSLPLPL
telomerase, sequence (Q9NY12 whole entry partner): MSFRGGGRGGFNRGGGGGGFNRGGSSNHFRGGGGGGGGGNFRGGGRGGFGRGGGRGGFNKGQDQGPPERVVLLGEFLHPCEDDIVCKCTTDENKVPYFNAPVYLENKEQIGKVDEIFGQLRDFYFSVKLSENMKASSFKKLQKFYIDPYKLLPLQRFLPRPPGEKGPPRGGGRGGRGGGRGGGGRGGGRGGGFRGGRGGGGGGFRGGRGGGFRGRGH
telomerase, sequence (Q9BUR4 whole entry partner): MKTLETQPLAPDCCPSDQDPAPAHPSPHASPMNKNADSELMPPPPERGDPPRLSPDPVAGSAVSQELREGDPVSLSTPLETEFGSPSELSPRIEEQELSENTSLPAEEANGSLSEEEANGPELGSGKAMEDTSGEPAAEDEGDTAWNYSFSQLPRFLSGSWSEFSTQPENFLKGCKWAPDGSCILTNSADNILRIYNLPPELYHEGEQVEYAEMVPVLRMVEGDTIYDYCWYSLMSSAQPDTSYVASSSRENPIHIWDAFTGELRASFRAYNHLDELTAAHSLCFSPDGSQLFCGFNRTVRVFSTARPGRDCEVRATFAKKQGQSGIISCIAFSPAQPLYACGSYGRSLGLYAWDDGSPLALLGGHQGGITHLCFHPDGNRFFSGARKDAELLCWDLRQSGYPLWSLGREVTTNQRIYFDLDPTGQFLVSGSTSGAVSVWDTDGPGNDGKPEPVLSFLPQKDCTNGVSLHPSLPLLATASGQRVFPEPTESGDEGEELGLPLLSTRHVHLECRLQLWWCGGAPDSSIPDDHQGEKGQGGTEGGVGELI

O=C1OC[C@H](Cc2cccc(O)c2)[C@H]1Cc1cccc(O)c1 (racemic) [Enterolactone, reference compound]
Telomerase Activity RTA (%) (PC3, 2.5 μM, 24 Hours): 61.02%
Telomerase Activity RTA (%) (PC3, 2.5 μM, 48 Hours): 3.50%
Telomerase Activity RTA (%) (PC3, 2.5 μM, 72 Hours): 13.88%
Telomerase Activity RTA (%) (PC3, 5 μM, 24 Hours): 55.90%
Telomerase Activity RTA (%) (PC3, 5 μM, 48 Hours): 3.31%
Telomerase Activity RTA (%) (PC3, 5 μM, 72 Hours): 10.65%
Telomerase Activity RTA (%) (PC3, 10 μM, 24 Hours): 62.45%
Telomerase Activity RTA (%) (PC3, 10 μM, 48 Hours): 17.89%
Telomerase Activity RTA (%) (PC3, 10 μM, 72 Hours): 12.63%
Telomerase Activity RTA (%) (PC3, 20 μM, 24 Hours): 56.77%
Telomerase Activity RTA (%) (PC3, 20 μM, 48 Hours): 25.39%
Telomerase Activity RTA (%) (PC3, 20 μM, 72 Hours): 5.15%
Telomerase Activity RTA (%) (PC3, 40 μM, 24 Hours): 43.75%
Telomerase Activity RTA (%) (PC3, 40 μM, 48 Hours): 70.42%
Telomerase Activity RTA (%) (PC3, 40 μM, 72 Hours): 6.57%
IC50 (PC3, 24 h): 21.9 µM
telomerase activity levels of treated groups compared to control (PC3, 24 hours): lower telomerase activity levels compared to control
Significance of RTA difference vs. control (PC3, 24 hours, 2.5 μM): No
Significance of RTA difference vs. control (PC3, 24 hours, 5 μM): No
Significance of RTA difference vs. control (PC3, 24 hours, 10 μM): No
Significance of RTA difference vs. control (PC3, 24 hours, 20 μM): No
Significance of RTA difference vs. control (PC3, 24 hours, 40 μM): Yes (*) (Yes (*): p < 0.05)
IC50 (PC3, 48 h): 0.05 µM
telomerase activity levels of treated groups compared to control (PC3, 48 hours): four treated groups presented a reduction in RTA
Significance of RTA difference vs. control (PC3, 48 hours, 2.5 μM): Yes (***) (Yes (***): p < 0.001)
Significance of RTA difference vs. control (PC3, 48 hours, 5 μM): Yes (***) (Yes (***): p < 0.001)
Significance of RTA difference vs. control (PC3, 48 hours, 10 μM): Yes (**) (Yes (**): p < 0.01)
Significance of RTA difference vs. control (PC3, 48 hours, 20 μM): Yes (**) (Yes (**): p < 0.01)
Significance of RTA difference vs. control (PC3, 48 hours, 40 μM): No
IC50 (PC3, 72 h): 10.7 µM
telomerase activity levels of treated groups compared to control (PC3, 72 hours): no significant differences were detected between control and treated groups
Significance of RTA difference vs. control (PC3, 72 hours, 2.5 μM): No
Significance of RTA difference vs. control (PC3, 72 hours, 5 μM): No
Significance of RTA difference vs. control (PC3, 72 hours, 10 μM): No
Significance of RTA difference vs. control (PC3, 72 hours, 20 μM): No
Significance of RTA difference vs. control (PC3, 72 hours, 40 μM): No

O=C1OCC(Cc2ccc3c(c2)OCO3)/C1=C\c1cccc(O)c1 (single isomer, unassigned) [Enantiomer A, 3-[(3,4-dimethoxyphenyl)cyclopentyl], 4-[(3-hydroxyphenol)methyl]oxolan-2-one]
Telomerase Activity RTA (%) (PC3, 2.5 μM, 24 Hours): 49.67%
Telomerase Activity RTA (%) (PC3, 2.5 μM, 48 Hours): 21.48%
Telomerase Activity RTA (%) (PC3, 2.5 μM, 72 Hours): 18.63%
Telomerase Activity RTA (%) (PC3, 5 μM, 24 Hours): 44.11%
Telomerase Activity RTA (%) (PC3, 5 μM, 48 Hours): 7.86%
Telomerase Activity RTA (%) (PC3, 5 μM, 72 Hours): 15.77%
Telomerase Activity RTA (%) (PC3, 10 μM, 24 Hours): 20.76%
Telomerase Activity RTA (%) (PC3, 10 μM, 48 Hours): 3.60%
Telomerase Activity RTA (%) (PC3, 10 μM, 72 Hours): 19.40%
Telomerase Activity RTA (%) (PC3, 20 μM, 24 Hours): 22.61%
Telomerase Activity RTA (%) (PC3, 20 μM, 48 Hours): 2.51%
Telomerase Activity RTA (%) (PC3, 20 μM, 72 Hours): 5.20%
Telomerase Activity RTA (%) (PC3, 40 μM, 24 Hours): 29.78%
Telomerase Activity RTA (%) (PC3, 40 μM, 48 Hours): 6.23%
Telomerase Activity RTA (%) (PC3, 40 μM, 72 Hours): 1.48%
IC50 (PC3, 24 h): 5.18 µM
telomerase activity levels of treated groups compared to control (PC3, 24 hours): lower telomerase activity levels compared to control
Significance of RTA difference vs. control (PC3, 24 hours, 2.5 μM): No
Significance of RTA difference vs. control (PC3, 24 hours, 5 μM): Yes (*) (Yes (*): p < 0.05)
Significance of RTA difference vs. control (PC3, 24 hours, 10 μM): Yes (**) (Yes (**): p < 0.01)
Significance of RTA difference vs. control (PC3, 24 hours, 20 μM): Yes (***) (Yes (***): p < 0.001)
Significance of RTA difference vs. control (PC3, 24 hours, 40 μM): Yes (**) (Yes (**): p < 0.01)
IC50 (PC3, 48 h): 4.71 µM
telomerase activity levels of treated groups compared to control (PC3, 48 hours): lower telomerase activity levels compared to control
Significance of RTA difference vs. control (PC3, 48 hours, 2.5 μM): No
Significance of RTA difference vs. control (PC3, 48 hours, 5 μM): Yes (*) (Yes (*): p < 0.05)
Significance of RTA difference vs. control (PC3, 48 hours, 10 μM): Yes (**) (Yes (**): p < 0.01)
Significance of RTA difference vs. control (PC3, 48 hours, 20 μM): Yes (**) (Yes (**): p < 0.01)
Significance of RTA difference vs. control (PC3, 48 hours, 40 μM): Yes (*) (Yes (*): p < 0.05)
IC50 (PC3, 72 h): 18.7 µM
telomerase activity levels of treated groups compared to control (PC3, 72 hours): lower telomerase activity levels compared to control
Significance of RTA difference vs. control (PC3, 72 hours, 2.5 μM): No
Significance of RTA difference vs. control (PC3, 72 hours, 5 μM): Yes (*) (Yes (*): p < 0.05)
Significance of RTA difference vs. control (PC3, 72 hours, 10 μM): No
Significance of RTA difference vs. control (PC3, 72 hours, 20 μM): Yes (*) (Yes (*): p < 0.05)
Significance of RTA difference vs. control (PC3, 72 hours, 40 μM): Yes (**) (Yes (**): p < 0.01)
telomerase inhibition effect: exhibits a telomerase inhibition effect in a PC3 prostate cancer cell line that is more prolonged throughout all time points

O=C1OCC(Cc2ccc3c(c2)OCO3)/C1=C\c1cccc(O)c1 (single isomer, unassigned) [Enantiomer B, 3-[(3,4-dimethoxyphenyl)cyclopentyl], 4-[(3-hydroxyphenol)methyl]oxolan-2-one]
Telomerase Activity RTA (%) (PC3, 2.5 μM, 24 Hours): 48.73%
Telomerase Activity RTA (%) (PC3, 2.5 μM, 48 Hours): 126.77%
Telomerase Activity RTA (%) (PC3, 2.5 μM, 72 Hours): 13.05%
Telomerase Activity RTA (%) (PC3, 5 μM, 24 Hours): 36.48%
Telomerase Activity RTA (%) (PC3, 5 μM, 48 Hours): 112.17%
Telomerase Activity RTA (%) (PC3, 5 μM, 72 Hours): 11.67%
Telomerase Activity RTA (%) (PC3, 10 μM, 24 Hours): 23.87%
Telomerase Activity RTA (%) (PC3, 10 μM, 48 Hours): 102.96%
Telomerase Activity RTA (%) (PC3, 10 μM, 72 Hours): 12.58%
Telomerase Activity RTA (%) (PC3, 20 μM, 24 Hours): 31.05%
Telomerase Activity RTA (%) (PC3, 20 μM, 48 Hours): 154.17%
Telomerase Activity RTA (%) (PC3, 20 μM, 72 Hours): 7.53%
Telomerase Activity RTA (%) (PC3, 40 μM, 24 Hours): 14.44%
Telomerase Activity RTA (%) (PC3, 40 μM, 48 Hours): 128.83%
Telomerase Activity RTA (%) (PC3, 40 μM, 72 Hours): 13.49%
IC50 (PC3, 24 h): 2.99 µM
telomerase activity levels of treated groups compared to control (PC3, 24 hours): lower telomerase activity levels compared to control
Significance of RTA difference vs. control (PC3, 24 hours, 2.5 μM): Yes (*) (Yes (*): p < 0.05)
Significance of RTA difference vs. control (PC3, 24 hours, 5 μM): Yes (**) (Yes (**): p < 0.01)
Significance of RTA difference vs. control (PC3, 24 hours, 10 μM): Yes (**) (Yes (**): p < 0.01)
Significance of RTA difference vs. control (PC3, 24 hours, 20 μM): Yes (**) (Yes (**): p < 0.01)
Significance of RTA difference vs. control (PC3, 24 hours, 40 μM): Yes (***) (Yes (***): p < 0.001)
IC50 (PC3, 48 h): 15.4 µM
telomerase activity levels of treated groups compared to control (PC3, 48 hours): the differences were not found to be significant
Significance of RTA difference vs. control (PC3, 48 hours, 2.5 μM): No
Significance of RTA difference vs. control (PC3, 48 hours, 5 μM): No
Significance of RTA difference vs. control (PC3, 48 hours, 10 μM): No
Significance of RTA difference vs. control (PC3, 48 hours, 20 μM): No
Significance of RTA difference vs. control (PC3, 48 hours, 40 μM): No
IC50 (PC3, 72 h): 2.38 µM
telomerase activity levels of treated groups compared to control (PC3, 72 hours): without any particular differences between the treated and control groups
Significance of RTA difference vs. control (PC3, 72 hours, 2.5 μM): No
Significance of RTA difference vs. control (PC3, 72 hours, 5 μM): No
Significance of RTA difference vs. control (PC3, 72 hours, 10 μM): No
Significance of RTA difference vs. control (PC3, 72 hours, 20 μM): Yes (*) (Yes (*): p < 0.05)
Significance of RTA difference vs. control (PC3, 72 hours, 40 μM): No
telomerase inhibition effect: exhibits a telomerase inhibition effect at 24 hours
